Patent US4318925A (priority 1977, dated 1982)
Where a name gives a salt, the structure may show the parent alone. Read-outs that look alike come from different tables or passages of the source.

Legend:
Newcastle diseases virus = settings: Koji Aigami et al., J. of Medicinal Chemistry, Vol. 19, 536 (1976); cited from earlier work
Influenza AoPR/8 = assay type: in vivo, ddY male mice; settings: subcutaneous, from 3 hours pre to 150 hours post infection, LLS 7 days after infection, Control (0 mg/kg) 4.8
in vitro = settings: human, kb cells
influenza viruses = settings: British Pat. No. 1,063,366; SCIENCE, Vol. 144, 862, (1964); cited from earlier work

SMILES	Lung Lesion Score (Influenza AoPR/8; 15 mg/kg)	MCC at 72 h (in vitro) [µg/mL]	also measured
NC12CCCC3CC(CCC31)C2 (centres unmarked) [3-amino-4-homoisotwistane hydrochloride]	–	–	antiviral activity against Newcastle diseases virus (Newcastle diseases virus): have antiviral activity against Newcastle diseases virus
CN(C)CCOCC(=O)N(C)C12CCCC3CC(CCC31)C2 (centres unmarked) [N-methyl, N-[3-(4-homoisotwistyl)]-2-(2-dimethylaminoethoxy) acetamide hydrochloride]	4.50	–	–
CN(C)CCOCC(=O)NC12CCCC3CC(CCC31)C2 (centres unmarked) [N-[3-(4-homoisotwistyl)]-2-(2-dimethylaminoethoxy)-acetamide hydrochloride]	4.33	250	–
O=C(COc1ccccc1)NC12CCCC3CC(CCC31)C2 (centres unmarked) [N-[3-(4-homoisotwistyl)]-2-phenoxyacetamide]	4.35	–	–
CCOCC(=O)NC12CCCC3CC(CCC31)C2 (centres unmarked) [N-[3-(4-homoisotwistyl)]-2-ethoxyacetamide]	–	25	–
CCCCCCCCCCCOCC(=O)NC12CCCC3CC(CCC31)C2 (centres unmarked) [N-[3-(4-homoisotwistyl)]-2-undecyloxyacetamide]	–	10	–
CCCCCOCC(=O)NC12CCCC3CC(CCC31)C2 (centres unmarked) [N-[3-(4-homoisotwistyl)]-2-pentyloxyacetamide]	–	5	–
NC12CC3CC(CC(C3)C1)C2 [Amantadine hydrochloride, reference compound]	–	> 50	Lung Lesion Score (Influenza AoPR/8; 10 mg/kg): 4.3
NC12CC3CC(CC(C3)C1)C2 [1-adamantanamine]	–	–	antiviral activity against influenza viruses (influenza viruses): show antiviral against influenza viruses
